For test [1], the target named is human RORγt ligand binding domain (RORγt LBD) (Homo sapiens (Human), UniProt P51449). Nature of the test: RORγt ThermoFluor assay. Summed up: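 Thermal shift of His-tagged human RORγt LBD (0.065 mg/mL) with 60 μM 1,8-ANS in 100 mM Hepes pH 7.0, 10 mM NaCl, 2.5 mM GSH, 0.002% Tween-20, heated at 1° C./min. Compounds in 1:2 series from a 10 mM DMSO stock; KD estimated from ΔTm using protein unfolding thermodynamics.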

The target in the next test is full-length human RORγt (Homo sapiens (Human), UniProt P51449). Briefly: RORγt (full-length human) reporter assay, conditions A or B. It counts as cell-based. The conditions noted are these: for IC50: HEK293T cells, read-out: RORγt (FL) Reporter Assay A or B, IC50; for inhibition at 0.67 µM: read-out: RORγt (FL) Reporter Assay A or B, % inhibition, 0.67 μM compound concentration (****); for inhibition at 6 µM: read-out: RORγt (FL) Reporter Assay A or B, % inhibition @ 6 μM, 6 μM compound concentration; for inhibition at 3 µM: 3 μM compound concentration (*). The method in brief:
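HEK293T cells transiently co-transfected (PEI) with GAL4-DBD–RORγt, GAL4-firefly luciferase and CMV-Renilla reporters; condition A 35,000 cells/well, 170.5 ng DNA/well; condition B 8750 cells/well, 42.6 ng DNA/well.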

Where [2] appears, read: read-out: RORγt (FL) Reporter Assay A or B, % inhibition.
The mark [3] stands for this setting: 2 μM compound concentration (**), read-out: RORγt (FL) Reporter Assay A or B, % inhibition.

Where two headings read alike, the source gives them in different places.

human RORγt ligand binding domain (RORγt LBD), sequence (P51449 other isoform, or with tags, fused parts or gaps): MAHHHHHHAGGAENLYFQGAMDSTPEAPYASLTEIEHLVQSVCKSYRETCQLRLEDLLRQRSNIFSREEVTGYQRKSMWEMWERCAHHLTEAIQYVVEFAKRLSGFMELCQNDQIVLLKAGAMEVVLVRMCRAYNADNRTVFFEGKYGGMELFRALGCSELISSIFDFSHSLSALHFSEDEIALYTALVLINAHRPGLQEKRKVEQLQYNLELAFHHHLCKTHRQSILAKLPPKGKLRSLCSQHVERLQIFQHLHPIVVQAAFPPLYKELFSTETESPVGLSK
full-length human RORγt, sequence (P51449 other isoform, or with tags, fused parts or gaps): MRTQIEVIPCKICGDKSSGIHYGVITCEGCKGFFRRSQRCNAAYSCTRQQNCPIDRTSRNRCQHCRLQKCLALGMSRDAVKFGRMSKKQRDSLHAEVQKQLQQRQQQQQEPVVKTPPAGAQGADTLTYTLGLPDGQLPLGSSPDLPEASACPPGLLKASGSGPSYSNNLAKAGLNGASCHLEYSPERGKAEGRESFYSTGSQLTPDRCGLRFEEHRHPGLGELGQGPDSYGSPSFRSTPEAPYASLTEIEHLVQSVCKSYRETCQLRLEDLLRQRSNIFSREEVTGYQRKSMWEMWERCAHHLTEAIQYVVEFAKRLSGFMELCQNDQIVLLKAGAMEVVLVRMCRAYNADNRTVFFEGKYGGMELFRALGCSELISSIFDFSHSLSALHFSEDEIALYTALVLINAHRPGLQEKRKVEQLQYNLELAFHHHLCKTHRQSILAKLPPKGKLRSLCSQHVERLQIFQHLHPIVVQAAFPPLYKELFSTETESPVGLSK

Consider `CCc1nc(C(=O)NC[C@H]2CC[C@H](S(C)(=O)=O)CC2)c(Cl)n1-c1c(F)cc(C[C@H](C)C(F)(F)F)cc1F` (single isomer, unassigned) [Example 86, 5-Chloro-1-(2,6-difluoro-4-((S*)-3,3,3-trifluoro-2-methylpropyl)phenyl)-2-ethyl-N-(((1r,4S)-4-(methylsulfonyl)cyclohexyl)methyl)-1H-imidazole-4-carboxamide], for which the Kd in test [1] was 5.3 nM. For the same molecule, on full-length human RORγt, the IC50 is 23 nM and the inhibition at 0.67 µM is 68%.
In test [1], `CCc1nc(C(=O)NC[C@H]2CC[C@H](S(C)(=O)=O)CC2)c(Cl)n1-c1c(F)cc(C[C@@H](C)C(F)(F)F)cc1F` (single isomer, unassigned) [Example 87, 5-Chloro-1-(2,6-difluoro-4-((R*)-3,3,3-trifluoro-2-methylpropyl)phenyl)-2-ethyl-N-(((1r,4R)-4-(methylsulfonyl)cyclohexyl)methyl)-1H-imidazole-4-carboxamide] returned a Kd of 3.8 nM. At full-length human RORγt, the IC50 worked out at 18 nM and the inhibition at 0.67 µM turned out to be 66%.
`CCc1nc(C(=O)NC[C@]2(O)CC[C@@H](S(C)(=O)=O)CC2)c(Cl)n1-c1ccc(CC(C)C)cc1OC` (single isomer, unassigned) [Example 91, 5-Chloro-2-ethyl-N-(((1s,4S)-1-hydroxy-4-(methylsulfonyl)cyclohexyl)methyl)-1-((S*)-4-isobutyl-2-methoxyphenyl)-1H-imidazole-4-carboxamide] yielded a dissociation constant (Kd) in test [1] of 620 nM. In addition, at full-length human RORγt, the IC50 was determined as 360 nM. The inhibition at 2 µM on full-length human RORγt (read-out: RORγt (FL) Reporter Assay A or B, % inhibition, 2 μM compound concentration (**)) came out at 42%.
`CCc1nc(C(=O)NC[C@]2(O)CC[C@@H](S(C)(=O)=O)CC2)c(Cl)n1-c1ccc(CC(C)C)cc1OC` (single isomer, unassigned) [Example 92, 5-Chloro-2-ethyl-N-(((1s,4S)-1-hydroxy-4-(methylsulfonyl)cyclohexyl)methyl)-1-((R*)-4-isobutyl-2-methoxyphenyl)-1H-imidazole-4-carboxamide]: in test [1], the affinity, expressed as Kd, was 0.28 nM. For the same molecule, at full-length human RORγt, the IC50 came to 7 nM and the inhibition at 6 µM is 72%.
In test [1], `CCc1nc(C(=O)NC[C@]2(O)CC[C@@H](S(C)(=O)=O)C[C@H]2O)c(Cl)n1-c1ncc(CC(C)(C)C(F)(F)F)cc1OC(F)F` (stereo in doubt) [Example 60, 5-Chloro-1-(3-(difluoromethoxy)-5-(3,3,3-trifluoro-2,2-dimethylpropyl)pyridin-2-yl)-N-(((1R*,2R*,4R*)-1,2-dihydroxy-4-(methylsulfonyl)cyclohexyl)methyl)-2-ethyl-1H-imidazole-4-carboxamide] showed a Kd of 34 nM. The inhibition at 3 µM on full-length human RORγt (setting [2]) is 86%. Besides, at full-length human RORγt, the IC50 was 190 nM.
In the same order, the values of `CCc1nc(C(=O)NC[C@@]2(O)CC[C@H](S(C)(=O)=O)C[C@@H]2O)c(Cl)n1-c1ncc(CC(C)(C)C(F)(F)F)cc1OC(F)F` (stereo in doubt) [Example 61, 5-Chloro-1-(3-(difluoromethoxy)-5-(3,3,3-trifluoro-2,2-dimethylpropyl)pyridin-2-yl)-N-(((1S*,2S*,4S*)-1,2-dihydroxy-4-(methylsulfonyl)cyclohexyl)methyl)-2-ethyl-1H-imidazole-4-carboxamide] are 46 nM, 90% and 110 nM.
Taken in the same sequence, the figures for `CCc1nc(C(=O)NC[C@H]2CC[C@H](S(C)(=O)=O)C[C@@H]2O)c(Cl)n1-c1ncc(CC(C(F)(F)F)C(F)(F)F)cc1OC(F)F` (stereo in doubt) [Example 64, 5-Chloro-1-(3-(difluoromethoxy)-5-(3,3,3-trifluoro-2-(trifluoromethyl)propyl)pyridin-2-yl)-2-ethyl-N-(((1R*,2S*,4S*)-2-hydroxy-4-(methylsulfonyl)cyclohexyl)methyl)-H-imidazole-4-carboxamide] were 35 nM, 101% and 210 nM.
The molecule `CCc1nc(C(=O)NC[C@@H]2CC[C@@H](S(C)(=O)=O)C[C@H]2O)c(Cl)n1-c1ncc(CC(C(F)(F)F)C(F)(F)F)cc1OC(F)F` (stereo in doubt) [Example 65, 5-Chloro-1-(3-(difluoromethoxy)-5-(3,3,3-trifluoro-2-(trifluoromethyl)propyl)pyridin-2-yl)-2-ethyl-N-(((1S*,2R*,4R*)-2-hydroxy-4-(methylsulfonyl)cyclohexyl)methyl)-1H-imidazole-4-carboxamide] had a Kd in test [1] of 28 nM. Besides, the inhibition at 3 µM on full-length human RORγt (setting [2]) is 105%. Further, at full-length human RORγt, the IC50 was 110 nM.
In the same order, the values of `CCc1nc(C(=O)NC[C@@]2(O)CC[C@H](S(C)(=O)=O)C[C@@H]2O)c(Cl)n1-c1ncc(CC(C(F)(F)F)C(F)(F)F)cc1OC(F)F` (stereo in doubt) [Example 66, 5-Chloro-1-(3-(difluoromethoxy)-5-(3,3,3-trifluoro-2-(trifluoromethyl)propyl)pyridin-2-yl)-N-(((1S*,2S*,4S*)-1,2-dihydroxy-4-(methylsulfonyl)cyclohexyl)methyl)-2-ethyl-1H-imidazole-4-carboxamide] are 73 nM, 70% and 790 nM.
In the same order, the values of `CCc1nc(C(=O)NC[C@]2(O)CC[C@@H](S(C)(=O)=O)C[C@H]2O)c(Cl)n1-c1ncc(CC(C(F)(F)F)C(F)(F)F)cc1OC(F)F` (stereo in doubt) [Example 67, 5-Chloro-1-(3-(difluoromethoxy)-5-(3,3,3-trifluoro-2-(trifluoromethyl)propyl)pyridin-2-yl)-N-(((1R*,2R*,4R*)-1,2-dihydroxy-4-(methylsulfonyl)cyclohexyl)methyl)-2-ethyl-1H-imidazole-4-carboxamide] are 53 nM, 103% and 170 nM.
For `CCc1nc(C(=O)NC[C@]2(O)CC[C@@H](S(C)(=O)=O)CC2)c(C#N)n1-c1ccc(CC(C)C(F)(F)F)cc1OC` (stereo partly drawn) [Example 1, 5-Cyano-2-ethyl-N-(((1s,4s)-1-hydroxy-4-(methylsulfonyl)cyclohexyl)methyl)-1-(2-methoxy-4-(3,3,3-trifluoro-2-methylpropyl)phenyl)-1H-imidazole-4-carboxamide], the Kd in test [1] is 4.6 nM. Moreover, on full-length human RORγt (setting [3]), the inhibition at 2 µM stood at 103%. The half-inhibitory concentration (IC50) on full-length human RORγt is 40 nM.
In the same order, the values of `CCc1nc(C(=O)NC[C@H]2CC[C@@H](S(C)(=O)=O)CC2)c(Cl)n1-c1ccc(N[C@H](C)C(F)(F)F)cc1OC` [Example 4, 5-Chloro-2-ethyl-1-(2-methoxy-4-(((R)-1,1,1-trifluoropropan-2-yl)amino)phenyl)-N-(((1s,4S)-4-(methylsulfonyl)cyclohexyl)methyl)-1H-imidazole-4-carboxamide] are 470 nM, 87% and 350 nM.
Regarding `COc1cc(N[C@H](C)C(F)(F)F)ccc1-n1c(CC(C)C)nc(C(=O)NC[C@H]2CC[C@H](S(C)(=O)=O)CC2)c1Cl` [Example 9, 5-Chloro-2-isobutyl-1-(2-methoxy-4-(((R)-1,1,1-trifluoropropan-2-yl)amino)phenyl)-N-(((1r,4R)-4-(methylsulfonyl)cyclohexyl)methyl)-1H-imidazole-4-carboxamide], in test [1], the Kd came out at 2.6 nM. At full-length human RORγt, the IC50 worked out at 35 nM and the inhibition at 6 µM worked out at 101%.
The molecule `COc1cc(N[C@H](C)C(F)(F)F)ccc1-n1c(C(C)(C)C)nc(C(=O)NC[C@H]2CC[C@H](S(C)(=O)=O)CC2)c1Cl` [Example 10, 2-(tert-Butyl)-5-chloro-1-(2-methoxy-4-(((R)-1,1,1-trifluoropropan-2-yl)amino)phenyl)-N-(((1r,4R)-4-(methylsulfonyl)cyclohexyl)methyl)-1H-imidazole-4-carboxamide] gave a Kd in test [1] of 6.1 nM. Besides, the inhibition at 2 µM on full-length human RORγt (setting [3]) is 104%. At full-length human RORγt, the IC50 was 57 nM.
Molecule `CCCc1nc(C(=O)NC[C@H]2CC[C@H](S(C)(=O)=O)CC2)c(Cl)n1-c1ccc(N[C@H](C)C(F)(F)F)cc1OC` [Example 11, 5-Chloro-1-(2-methoxy-4-(((R)-1,1,1-trifluoropropan-2-yl)amino)phenyl)-N-(((1r,4R)-4-(methylsulfonyl)cyclohexyl)methyl)-2-propyl-1H-imidazole-4-carboxamide] had a Kd in test [1] of 1 nM. Besides, at full-length human RORγt, the IC50 came to 39 nM and the inhibition at 6 µM turned out to be 102%.
In turn, `CCc1nc(C(=O)NC[C@H]2CC[C@H](S(C)(=O)=O)CC2)c(F)n1-c1ccc(CCC(F)(F)F)cc1OC` [Example 13, 2-Ethyl-5-fluoro-1-(2-methoxy-4-(3,3,3-trifluoropropyl)phenyl)-N-(((1r,4r)-4-(methylsulfonyl)cyclohexyl)methyl)-1H-imidazole-4-carboxamide] returned a Kd in test [1] of 25 nM. Moreover, at full-length human RORγt, the IC50 turned out to be 140 nM and the inhibition at 6 µM amounted to 95%.
In test [1], `CCc1nc(C(=O)NC[C@]2(O)CC[C@@H](S(C)(=O)=O)CC2)c(F)n1-c1ccc(CCC(F)(F)F)cc1OC` [Example 14, 2-Ethyl-5-fluoro-N-(((1s,4s)-1-hydroxy-4-(methylsulfonyl)cyclohexyl)methyl)-1-(2-methoxy-4-(3,3,3-trifluoropropyl)phenyl)-1H-imidazole-4-carboxamide] displayed a Kd of 83 nM. Also, at full-length human RORγt, the IC50 was determined as 320 nM and the inhibition at 6 µM turned out to be 83%.

The values above are taken from patent US11345666B2, “Phenyl and pyridinyl substituted imidazoles as modulators of RORγT” (Janssen Pharmaceutica NV, priority 2018, dated 2022).
